Assays:
Conditions in all cases: scale 0 to 100
woolly cupgrass = experiment: Test G preemergence test; format: in vivo, Eriochloa villosa
large crabgrass = experiment: Test G preemergence test; format: in vivo, Digitaria sanguinalis
wild oat = experiment: Test D preemergence test; format: in vivo, Avena fatua
Source text: (§1) Seeds of plant species selected from annual bluegrass (Poa annua), blackgrass (Alopecurus myosuroides), downy bromegrass (Bromus tectorum), field violet (Viola arvensis), green foxtail (Setaria viridis), Italian ryegrass (Lolium multiflorum), littleseed canarygrass (Phalaris minor), spring wheat (Triticum aestivum), wild oat (Avena fatua), […]), winter barley (Hordeum vulgare), and winter wheat (Triticum aestivum) were planted and treated preemergence with test chemicals formulated in a non-phytotoxic solvent mixture which included a surfactant. […] A dash (-) response means no test result.

lambsquarters = experiment: Test G preemergence test; format: in vivo, Chenopodium album
barnyardgrass = experiment: Test G preemergence test; format: in vivo, Echinochloa crus-galli
field violet = experiment: Test D preemergence test; format: in vivo, Viola arvensis
Source text: as §1

yellow foxtail = experiment: Test G preemergence test; format: in vivo, Pennisetum glaucum
fall panicum = experiment: Test G preemergence test; format: in vivo, Panicum dichotomiflorum
downy bromegrass = experiment: Test D preemergence test; format: in vivo, Bromus tectorum
Source text: as §1

windgrass = experiment: Test D preemergence test; format: in vivo, Apera spica-venti
Source text: as §1

soybean = experiment: Test G preemergence test; format: in vivo, Glycine max
broadleaf signalgrass = experiment: Test G preemergence test; format: in vivo, Brachiaria platyphylla
winter wheat = experiment: Test D preemergence test; format: in vivo, Triticum aestivum
Source text: as §1

spring wheat = experiment: Test D preemergence test; format: in vivo, Triticum aestivum
Source text: as §1

giant foxtail = experiment: Test G preemergence test; format: in vivo, Setaria faberii
eastern black nightshade = experiment: Test G preemergence test; format: in vivo, Solanum ptycanthum
corn = experiment: Test G preemergence test; format: in vivo, Zea mays
green foxtail = experiment: Test D preemergence test; format: in vivo, Setaria viridis
Source text: as §1

Italian ryegrass = experiment: Test D preemergence test; format: in vivo, Lolium multiflorum
Source text: as §1

tall waterhemp = experiment: Test G preemergence test; format: in vivo, Amaranthus tuberculatos
goosegrass = experiment: Test G preemergence test; format: in vivo, Eleusine indica
sorghum = experiment: Test G preemergence test; format: in vivo, Sorghum vulgare

Cn1nc(C(F)(F)F)c(C(Cl)S(=O)(=O)c2cccc[n+]2[O-])c1Cl (stereo not shown) [Compound 12]
55: Plant response rating, Foxtail, Green (green foxtail; 31 g ai/ha)
60: Plant response rating, Crabgrass, Large (large crabgrass; 62 g ai/ha) | Plant response rating, Bromegrass, Downy (downy bromegrass; 125 g ai/ha) | Plant response rating, Bromegrass, Downy (downy bromegrass; 250 g ai/ha) | Plant response rating, Foxtail, Green (green foxtail; 62 g ai/ha) | Plant response rating, Sorghum (sorghum; 125 g ai/ha)
0: Plant response rating, Cupgrass, Woolly (woolly cupgrass; 31 g ai/ha) | Plant response rating, Cupgrass, Woolly (woolly cupgrass; 62 g ai/ha) | Plant response rating, Oat, Wild (wild oat; 31 g ai/ha) | Plant response rating, Oat, Wild (wild oat; 62 g ai/ha) | Plant response rating, Oat, Wild (wild oat; 125 g ai/ha) | Plant response rating, Oat, Wild (wild oat; 250 g ai/ha) | Plant response rating, Lambsquarters (lambsquarters; 31 g ai/ha) | Plant response rating, Lambsquarters (lambsquarters; 62 g ai/ha) | Plant response rating, Lambsquarters (lambsquarters; 125 g ai/ha) | Plant response rating, Field Violet (field violet; 31 g ai/ha) | Plant response rating, Field Violet (field violet; 62 g ai/ha) | Plant response rating, Field Violet (field violet; 125 g ai/ha) | Plant response rating, Bromegrass, Downy (downy bromegrass; 31 g ai/ha) | Plant response rating, Bromegrass, Downy (downy bromegrass; 62 g ai/ha) | Plant response rating, Soybean (soybean; 31 g ai/ha) | Plant response rating, Soybean (soybean; 62 g ai/ha) | Plant response rating, Soybean (soybean; 125 g ai/ha) | Plant response rating, Soybean (soybean; 250 g ai/ha) | Plant response rating, Signalgrass (broadleaf signalgrass; 31 g ai/ha) | Plant response rating, Signalgrass (broadleaf signalgrass; 62 g ai/ha) | Plant response rating, Wheat, Winter (winter wheat; 31 g ai/ha) | Plant response rating, Wheat, Winter (winter wheat; 62 g ai/ha) | Plant response rating, Wheat, Winter (winter wheat; 125 g ai/ha) | Plant response rating, Wheat, Winter (winter wheat; 250 g ai/ha) | Plant response rating, Wheat, Spring (spring wheat; 31 g ai/ha) | Plant response rating, Wheat, Spring (spring wheat; 62 g ai/ha) | Plant response rating, Wheat, Spring (spring wheat; 125 g ai/ha) | Plant response rating, Wheat, Spring (spring wheat; 250 g ai/ha) | Plant response rating, Nightshade (eastern black nightshade; 31 g ai/ha) | Plant response rating, Nightshade (eastern black nightshade; 62 g ai/ha) | Plant response rating, Nightshade (eastern black nightshade; 125 g ai/ha) | Plant response rating, Corn (corn; 31 g ai/ha) | Plant response rating, Corn (corn; 62 g ai/ha) | Plant response rating, Corn (corn; 125 g ai/ha) | Plant response rating, Corn (corn; 250 g ai/ha) | Plant response rating, Ryegrass, Italian (Italian ryegrass; 31 g ai/ha) | Plant response rating, Ryegrass, Italian (Italian ryegrass; 62 g ai/ha) | Plant response rating, Waterhemp (tall waterhemp; 31 g ai/ha) | Plant response rating, Sorghum (sorghum; 31 g ai/ha) | Plant response rating, Sorghum (sorghum; 62 g ai/ha)
65: Plant response rating, Cupgrass, Woolly (woolly cupgrass; 125 g ai/ha) | Plant response rating, Barnyardgrass (barnyardgrass; 31 g ai/ha) | Plant response rating, Foxtail, Green (green foxtail; 125 g ai/ha)
40: Plant response rating, Field Violet (field violet; 250 g ai/ha) | Plant response rating, Waterhemp (tall waterhemp; 62 g ai/ha)
90: Plant response rating, Fall Panicum (fall panicum; 31 g ai/ha)
100: Plant response rating, Crabgrass, Large (large crabgrass; 250 g ai/ha) | Plant response rating, Barnyardgrass (barnyardgrass; 125 g ai/ha) | Plant response rating, Barnyardgrass (barnyardgrass; 250 g ai/ha) | Plant response rating, Foxtail, Yellow (yellow foxtail; 62 g ai/ha) | Plant response rating, Foxtail, Yellow (yellow foxtail; 125 g ai/ha) | Plant response rating, Foxtail, Yellow (yellow foxtail; 250 g ai/ha) | Plant response rating, Fall Panicum (fall panicum; 62 g ai/ha) | Plant response rating, Fall Panicum (fall panicum; 125 g ai/ha) | Plant response rating, Fall Panicum (fall panicum; 250 g ai/ha) | Plant response rating, Windgrass (windgrass; 31 g ai/ha) | Plant response rating, Windgrass (windgrass; 62 g ai/ha) | Plant response rating, Windgrass (windgrass; 125 g ai/ha) | Plant response rating, Windgrass (windgrass; 250 g ai/ha) | Plant response rating, Foxtail, Giant (giant foxtail; 125 g ai/ha) | Plant response rating, Foxtail, Giant (giant foxtail; 250 g ai/ha) | Plant response rating, Foxtail, Green (green foxtail; 250 g ai/ha) | Plant response rating, Ryegrass, Italian (Italian ryegrass; 250 g ai/ha) | Plant response rating, Waterhemp (tall waterhemp; 250 g ai/ha) | Plant response rating, Goosegrass (goosegrass; 31 g ai/ha) | Plant response rating, Goosegrass (goosegrass; 62 g ai/ha) | Plant response rating, Goosegrass (goosegrass; 125 g ai/ha) | Plant response rating, Goosegrass (goosegrass; 250 g ai/ha) | Plant response rating, Sorghum (sorghum; 250 g ai/ha)
15: Plant response rating, Crabgrass, Large (large crabgrass; 31 g ai/ha) | Plant response rating, Lambsquarters (lambsquarters; 250 g ai/ha)
45: Plant response rating, Foxtail, Giant (giant foxtail; 31 g ai/ha)
70: Plant response rating, Cupgrass, Woolly (woolly cupgrass; 250 g ai/ha) | Plant response rating, Nightshade (eastern black nightshade; 250 g ai/ha) | Plant response rating, Ryegrass, Italian (Italian ryegrass; 125 g ai/ha)
75: Plant response rating, Signalgrass (broadleaf signalgrass; 125 g ai/ha) | Plant response rating, Signalgrass (broadleaf signalgrass; 250 g ai/ha) | Plant response rating, Foxtail, Giant (giant foxtail; 62 g ai/ha)
95: Plant response rating, Crabgrass, Large (large crabgrass; 125 g ai/ha) | Plant response rating, Barnyardgrass (barnyardgrass; 62 g ai/ha) | Plant response rating, Foxtail, Yellow (yellow foxtail; 31 g ai/ha) | Plant response rating, Waterhemp (tall waterhemp; 125 g ai/ha)
